# pIC50, pKi: −log10 of the molar value.
# Experiments:
# [1] = molecular target: ProfilerPro Kinase Selectivity Assay Kit kinases (Homo sapiens, UniProt O14757); assay type: biochemical; conditions: CHK1; 1 μM compound concentration
# Experimental: (§1) Compounds were profiled using a LabChip® EZ Reader II platform and a ProfilerPro Kinase Selectivity Assay Kit (Caliper Lifesciences Inc., Hopkinton, Mass.). Compounds were tested at a concentration of 1 M in duplicate, with mean data reported as percent of control (POC).
# [2] = molecular target: ProfilerPro Kinase Selectivity Assay Kit kinases (Homo sapiens, UniProt O96017); assay type: biochemical; conditions: CHK2; 1 μM compound concentration
# Experimental: as §1
# [3] = molecular target: ProfilerPro Kinase Selectivity Assay Kit kinases (Homo sapiens, UniProt P06213); assay type: biochemical; conditions: INSR; 1 μM compound concentration
# Experimental: as §1
# [4] = molecular target: ProfilerPro Kinase Selectivity Assay Kit kinases (Homo sapiens, UniProt P08581); assay type: biochemical; conditions: cMET; 1 μM compound concentration
# Sequence of ProfilerPro Kinase Selectivity Assay Kit kinases (Homo sapiens, UniProt P08581) (P08581 25-1390 limits assumed): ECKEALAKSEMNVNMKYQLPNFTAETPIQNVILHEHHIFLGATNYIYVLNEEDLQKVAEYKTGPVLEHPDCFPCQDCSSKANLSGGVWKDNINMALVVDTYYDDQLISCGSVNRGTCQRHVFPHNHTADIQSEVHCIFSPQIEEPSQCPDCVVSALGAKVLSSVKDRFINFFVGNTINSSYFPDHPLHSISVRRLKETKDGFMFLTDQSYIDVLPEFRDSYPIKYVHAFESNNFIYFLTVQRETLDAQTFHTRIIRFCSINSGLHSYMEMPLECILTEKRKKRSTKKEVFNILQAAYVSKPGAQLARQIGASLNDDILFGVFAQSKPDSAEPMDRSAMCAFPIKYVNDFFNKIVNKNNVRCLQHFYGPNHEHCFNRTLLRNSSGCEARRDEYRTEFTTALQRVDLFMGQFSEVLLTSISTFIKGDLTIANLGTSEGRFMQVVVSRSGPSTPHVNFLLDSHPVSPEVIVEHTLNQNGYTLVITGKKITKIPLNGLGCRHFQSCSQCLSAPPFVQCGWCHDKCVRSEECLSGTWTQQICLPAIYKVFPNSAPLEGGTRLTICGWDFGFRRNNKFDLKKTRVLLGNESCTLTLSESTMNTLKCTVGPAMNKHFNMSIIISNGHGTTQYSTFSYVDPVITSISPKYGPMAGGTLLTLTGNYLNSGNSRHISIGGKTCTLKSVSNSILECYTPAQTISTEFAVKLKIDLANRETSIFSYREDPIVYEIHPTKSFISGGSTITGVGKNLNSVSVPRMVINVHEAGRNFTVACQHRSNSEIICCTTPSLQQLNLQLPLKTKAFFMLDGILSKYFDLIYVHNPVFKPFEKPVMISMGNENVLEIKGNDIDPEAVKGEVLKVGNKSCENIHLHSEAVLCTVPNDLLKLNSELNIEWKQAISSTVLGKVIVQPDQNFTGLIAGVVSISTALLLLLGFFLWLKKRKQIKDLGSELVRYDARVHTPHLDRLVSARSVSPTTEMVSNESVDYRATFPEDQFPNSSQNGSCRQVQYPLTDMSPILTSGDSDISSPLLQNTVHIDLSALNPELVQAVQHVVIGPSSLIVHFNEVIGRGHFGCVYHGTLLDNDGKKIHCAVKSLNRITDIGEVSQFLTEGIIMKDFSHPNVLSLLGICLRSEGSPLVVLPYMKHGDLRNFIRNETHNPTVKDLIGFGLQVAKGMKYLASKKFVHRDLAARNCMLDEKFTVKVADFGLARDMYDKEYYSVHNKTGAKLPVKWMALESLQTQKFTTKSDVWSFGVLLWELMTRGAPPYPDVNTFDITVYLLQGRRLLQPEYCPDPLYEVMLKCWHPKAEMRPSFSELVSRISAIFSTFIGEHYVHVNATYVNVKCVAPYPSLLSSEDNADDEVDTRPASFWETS
# Experimental: as §1
# [5] = molecular target: ProfilerPro Kinase Selectivity Assay Kit kinases (Homo sapiens, UniProt P12931); assay type: biochemical; conditions: SRC; 1 μM compound concentration
# Sequence of ProfilerPro Kinase Selectivity Assay Kit kinases (Homo sapiens, UniProt P12931) (P12931 2-536 limits assumed): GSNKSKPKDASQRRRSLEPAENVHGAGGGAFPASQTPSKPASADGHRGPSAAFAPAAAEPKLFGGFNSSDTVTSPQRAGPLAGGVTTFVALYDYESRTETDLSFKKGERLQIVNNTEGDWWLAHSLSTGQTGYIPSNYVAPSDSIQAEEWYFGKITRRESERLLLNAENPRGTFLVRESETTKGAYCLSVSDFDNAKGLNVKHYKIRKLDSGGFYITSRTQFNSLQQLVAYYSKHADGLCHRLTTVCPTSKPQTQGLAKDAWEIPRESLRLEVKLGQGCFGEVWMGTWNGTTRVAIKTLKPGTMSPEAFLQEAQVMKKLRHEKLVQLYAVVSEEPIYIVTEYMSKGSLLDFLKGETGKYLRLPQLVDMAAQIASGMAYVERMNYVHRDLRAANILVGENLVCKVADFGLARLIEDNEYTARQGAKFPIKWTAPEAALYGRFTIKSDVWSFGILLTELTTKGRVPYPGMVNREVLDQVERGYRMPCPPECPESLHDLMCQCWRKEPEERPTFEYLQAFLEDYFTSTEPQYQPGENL
# Experimental: as §1
# [6] = molecular target: ProfilerPro Kinase Selectivity Assay Kit kinases (Homo sapiens, UniProt P24941); assay type: biochemical; conditions: CDK2; 1 μM compound concentration
# Experimental: as §1
# [7] = molecular target: ProfilerPro Kinase Selectivity Assay Kit kinases (Homo sapiens, UniProt P31749); assay type: biochemical; conditions: AKT1; 1 μM compound concentration
# Experimental: as §1
# [8] = molecular target: ProfilerPro Kinase Selectivity Assay Kit kinases (Homo sapiens, UniProt P31751); assay type: biochemical; conditions: AKT2; 1 μM compound concentration
# Experimental: as §1
# [9] = molecular target: ProfilerPro Kinase Selectivity Assay Kit kinases (Homo sapiens, UniProt P49841); assay type: biochemical; conditions: GSK3 beta; 1 μM compound concentration
# Experimental: as §1
# [10] = molecular target: ProfilerPro Kinase Selectivity Assay Kit kinases (Homo sapiens, UniProt Q05513); assay type: biochemical; conditions: PKC zeta; 1 μM compound concentration
# Experimental: as §1
# [11] = molecular target: ProfilerPro Kinase Selectivity Assay Kit kinases (Homo sapiens, UniProt Q15418); assay type: biochemical; conditions: RSK1; 1 μM compound concentration
# Experimental: as §1
# [12] = molecular target: ProfilerPro Kinase Selectivity Assay Kit kinases (Homo sapiens, UniProt Q9BZL6); assay type: biochemical; conditions: PKD2; 1 μM compound concentration
# Experimental: as §1
# [13] = molecular target: ProfilerPro Kinase Selectivity Assay Kit kinases (Homo sapiens, UniProt Q9P0L2); assay type: biochemical; conditions: MARK1; 1 μM compound concentration
# Experimental: as §1
# [14] = molecular target: ProfilerPro Kinase Selectivity Assay Kit kinases (Homo sapiens, UniProt Q9P1W9); assay type: biochemical; conditions: PIM2; 1 μM compound concentration
# Experimental: as §1
# [15] = molecular target: PI3Kα (Homo sapiens (Human), UniProt P42336); conditions: read-out: PI3Kα AlphaScreen ® Ki
# Sequence of PI3Kα (P42336 whole entry): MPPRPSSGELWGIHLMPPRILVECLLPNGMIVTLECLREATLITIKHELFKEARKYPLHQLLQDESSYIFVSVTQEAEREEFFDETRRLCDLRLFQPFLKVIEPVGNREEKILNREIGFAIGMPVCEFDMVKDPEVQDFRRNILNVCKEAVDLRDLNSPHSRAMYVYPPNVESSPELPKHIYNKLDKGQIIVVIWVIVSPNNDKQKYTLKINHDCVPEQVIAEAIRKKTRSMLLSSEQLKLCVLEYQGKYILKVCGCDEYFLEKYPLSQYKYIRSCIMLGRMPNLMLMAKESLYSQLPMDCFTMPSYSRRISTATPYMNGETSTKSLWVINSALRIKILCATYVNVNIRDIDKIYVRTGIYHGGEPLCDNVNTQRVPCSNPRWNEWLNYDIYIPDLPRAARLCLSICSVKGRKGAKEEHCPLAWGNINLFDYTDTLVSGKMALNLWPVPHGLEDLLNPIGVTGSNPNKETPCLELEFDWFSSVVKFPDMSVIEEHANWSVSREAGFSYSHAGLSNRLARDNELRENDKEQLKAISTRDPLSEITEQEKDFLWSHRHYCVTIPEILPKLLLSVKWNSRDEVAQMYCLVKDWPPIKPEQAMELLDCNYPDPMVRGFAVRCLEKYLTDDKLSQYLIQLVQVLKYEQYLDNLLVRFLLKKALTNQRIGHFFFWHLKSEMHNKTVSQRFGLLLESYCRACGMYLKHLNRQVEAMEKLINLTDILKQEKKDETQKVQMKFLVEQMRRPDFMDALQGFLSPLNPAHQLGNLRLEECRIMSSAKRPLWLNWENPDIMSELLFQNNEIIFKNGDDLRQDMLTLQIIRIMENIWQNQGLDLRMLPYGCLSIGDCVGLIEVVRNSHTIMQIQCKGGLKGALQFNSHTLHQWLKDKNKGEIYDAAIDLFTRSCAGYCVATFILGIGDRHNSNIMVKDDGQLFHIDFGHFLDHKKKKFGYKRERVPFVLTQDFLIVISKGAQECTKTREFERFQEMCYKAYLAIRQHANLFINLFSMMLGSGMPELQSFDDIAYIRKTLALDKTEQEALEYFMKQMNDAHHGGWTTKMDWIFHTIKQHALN
# Sequence of PI3Kα (P27986 whole entry partner): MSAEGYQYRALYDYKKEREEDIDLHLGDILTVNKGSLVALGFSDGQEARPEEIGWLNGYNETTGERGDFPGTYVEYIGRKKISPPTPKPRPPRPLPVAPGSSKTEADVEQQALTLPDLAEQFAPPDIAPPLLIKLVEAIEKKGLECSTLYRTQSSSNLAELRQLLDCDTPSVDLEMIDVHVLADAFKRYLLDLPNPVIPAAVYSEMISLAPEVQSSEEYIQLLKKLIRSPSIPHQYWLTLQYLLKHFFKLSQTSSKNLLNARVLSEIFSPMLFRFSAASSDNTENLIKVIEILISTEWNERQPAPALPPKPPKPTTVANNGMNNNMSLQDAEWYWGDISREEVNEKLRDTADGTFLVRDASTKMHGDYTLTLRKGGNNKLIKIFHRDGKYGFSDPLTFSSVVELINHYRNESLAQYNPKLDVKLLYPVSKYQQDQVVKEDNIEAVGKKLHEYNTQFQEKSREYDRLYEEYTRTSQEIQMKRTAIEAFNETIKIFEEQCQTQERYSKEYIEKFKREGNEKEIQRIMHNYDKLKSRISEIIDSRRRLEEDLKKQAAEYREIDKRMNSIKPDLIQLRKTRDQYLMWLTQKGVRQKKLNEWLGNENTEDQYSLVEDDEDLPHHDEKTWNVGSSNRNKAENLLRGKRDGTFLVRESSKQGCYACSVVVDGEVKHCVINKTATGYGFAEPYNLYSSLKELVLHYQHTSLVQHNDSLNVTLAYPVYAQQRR
# [16] = tested on: phosphorylation of Akt at Serine 473 in U87 MG cells; assay: cells; conditions: Homo sapiens, U-87 MG, 2 h, read-out: U87Cell IC50, pAkt (Ser 473), U87 MG cells, two hours with compound
# Experimental: pAkt Aplhascreen (U87 Cell)
# This assay was performed using U87 MG cells. […] The cells were maintained weekly using 0.05% Trypsin (Gibco) and replated in 150 mm TC—Treated Culture Dishes (Corning, Corning, N.Y.).
# The first day of the assay, the adherent cells were trypsinized, media was added to the loose cells and cells were mixed to a homogenous mixture. 0.5 ml of the homogenous mixture was counted on the Beckman Coulter® Vi-CELL™ XR (Fullerton, Calif.). 50 frames of cells were counted and the number of viable cells was determined. The cells were then diluted to 0.25 million cells per ml, and centrifuged at 200 rcf for 5 minutes. The media was removed and the cells were reconstituted in fresh media for plating. The cells were plated at 20 μl per well on the PerkinElmer® FlexDrop PLUS in Low Volume 384 Well White Tissue Culture Plates (Corning) with a final cell density of 5K cells per well. The plates were incubated overnight at 37° Celsius, 5% CO2.
# After two hours, the media in the cell plates was aspirated using the BioTek® ELx405HT plate washer (Winooski, Vt.) removing the majority of media and compound without disturbing the adherent U87 cells. […] The plates were then incubated at room temperature on a shaker for ten minutes. […] The AlphaScreen® reaction was added to the cell lysate at 6 μl per well using the PerkinElmer® FlexDrop PLUS. The plates were placed in a humid environment to reduce edge effects and incubated overnight at room temperature with restricted air flow in the dark.
Structure (SMILES),POC (Percent of control) CHK1 [1] [POC],POC (Percent of control) CHK2 [2] [POC],POC (Percent of control) INSR [3] [POC],POC (Percent of control) cMET [4] [POC],POC (Percent of control) SRC [5] [POC],POC (Percent of control) CDK2 [6] [POC],POC (Percent of control) AKT1 [7] [POC],POC (Percent of control) AKT2 [8] [POC],POC (Percent of control) GSK3 beta [9] [POC],POC (Percent of control) PKC zeta [10] [POC],POC (Percent of control) RSK1 [11] [POC],POC (Percent of control) PKD2 [12] [POC],POC (Percent of control) MARK1 [13] [POC],POC (Percent of control) PIM2 [14] [POC],pKi [15],pIC50 [16]
"COc1ccc(Nc2ncccc2-c2ncnc3[nH]cnc23)cn1 [Example 20, N-(6-Methoxypyridin-3-yl)-3-(9H-Purin-6-yl)Pyridin-2-Amine]",104,103,97,106,95,96,105,92,95,99,97,100,108,105,,
"COc1ccc(Nc2ncccc2-c2nc(C)nc3[nH]cnc23)cn1 [Example 58, N-(6-methoxypyridin-3-yl)-3-(2-methyl-9H-purin-6-yl)pyridin-2-amine]",101,99,104,103,102,99,106,96,101,142,94,92,146,94,,
"Cc1nc(N)nc(-c2cc(CN3CCN(S(C)(=O)=O)CC3)cnc2Nc2cccc(O)c2)n1 [Example 30, 3-(3-(4-Amino-6-Methyl-1,3,5-Triazin-2-yl)-5-((4-(Methyl Sulfonyl)Piperazin-1-yl)Methyl)Pyridin-2-Ylamino)Phenol]",96,106,102,101,103,101,102,105,104,110,103,98,98,99,8.10,7.52
"Cc1cnc(Nc2cccc3[nH]ccc23)c(-c2nc(C)nc(N)n2)c1 [Example 46, N-(3-(4-Amino-6-Methyl-1,3,5-Triazin-2-yl)-5-Methylpyridin-2-yl)-1H-Indol-4-Amine]",98,101,98,104,96,97,93,110,95,198,100,106,102,99,6.89,7.10
"Cc1cnc(Nc2cccc3[nH]ncc23)c(-c2nc(C)nc(N)n2)c1 [Example 47, N-(3-(4-Amino-6-Methyl-1,3,5-Triazin-2-yl)-5-Methylpyridine-2-yl)-1H-Indazol-4-Amine]",92,99,99,102,79,93,50,74,97,102,105,113,107,104,7.44,6.71
"Cc1nc(N)nc(-c2cccnc2Nc2cccc3[nH]ccc23)n1 [Example 22, N-(3-(4-Amino-6-Methyl-1,3,5-Triazin-2-yl)Pyridin-2-yl)-1H-Indol-4-Amine]",103,102,96,106,101,107,102,97,94,98,100,99,109,97,,
"Cc1nc(-c2cccnc2Nc2cccc3[nH]ncc23)c2nc[nH]c2n1 [Example 57, N-(3-(2-methyl-9H-purin-6-yl)pyridin-2-yl)-1H-indazol-4-amine]",106,98,94,100,93,95,102,98,101,100,97,97,99,94,,
"c1cnc(Nc2cccc3[nH]ncc23)c(-c2ncnc3[nH]cnc23)c1 [Example 18, N-(3-(9H-Purin-6-yl)Pyridin-2-yl)-1H-Indazol-4-Amine]",97,94,90,104,93,91,103,93,92,102,96,97,112,101,4.65,
"Cc1nc(N)nc(-c2cccnc2Nc2cccc(O)c2)n1 [Example 23, 3-(3-(4-Amino-6-Methyl-1,3,5-Triazin-2-yl)Pyridin-2-Ylamino)Phenol]",105,101,98,104,99,106,103,112,96,102,103,104,97,99,,
"Cc1nc(N)cc(-c2cccnc2Nc2cccc3[nH]ncc23)n1 [Example 27, N-(3-(6-Amino-2-Methylpyrimidin-4-yl)Pyridin-2-yl)-1H-Indazol-4-Amine]",103,97,71,95,89,84,98,95,80,99,89,102,102,106,6.89,
